Several values for one entry are separate records, joined by “and”; a condition that tells them apart may be missing. Equal values may be shown once. Entries after “also recorded” stand apart in the source; their conditions may differ.
Experiments:
[1] = system: immature dendritic cells (iDCs); assay: Luciferase expression after electroporation of 5′-capped luciferase RNA into immature dendritic cells; assay type: cell-based, human; conditions: for transl. efficiency: maximal slope of curve; for transl. efficiency / relative total protein expression: m7GpppG RNA set to 1, mean ± SD; for relative total protein expression: luciferase, 72 h time course
[2] = system: mature dendritic cells (mDCs); assay: Luciferase expression after electroporation of 5′-capped luciferase RNA into mature dendritic cells; assay type: cell-based, human; conditions: for protein expression (in words) / transl. efficiency: luciferase RNA; for transl. efficiency: maximal slope of curve; for transl. efficiency / relative total protein expression: m7GpppG RNA set to 1, mean ± SD; for relative total protein expression: luciferase, 72 h time course; for time of max.: time point of maximal luciferase expression, mean ± SD
immature dendritic cells [3] = assay: d2eGFP expression (flow cytometry) after introduction of capped RNA into immature dendritic cells; assay type: cell-based, human; conditions: iDCs
immature dendritic cells [4] = assay: Luciferase activity with increasing RNA amounts (40 vs 20 pmol) in immature dendritic cells; assay type: cell-based; conditions: iDCs
Method: (§1) FIG. 3. Competition for translation between ARCA- and beta-S-ARCA(D1)-capped RNAs. Immature dendritic cells (iDCs) were electroporated with (A) increasing amounts of luciferase-encoding RNAs or (B) the indicated amounts of luciferase- and d2eGFP-encoding mRNAs, which were co-transcriptionally capped either with ARCA or beta-S-ARCA(D1) as indicated. The luciferase activity was measured after 2, 4, 8, 24, 48, and 72 hours. Shown is (A) the ratio between the luciferase activities obtained after electroporation with 40 and 20 pmol luciferase-encoding RNAs (±SD of two independent experiments), and (B) the relative luciferase activity compared to cells electroporated with only luciferase-encoding RNA without RNA (set to 1 for both ARCA- and beta-S-ARCA(D1)-capped RNA).
The results described so far indicate that the translational efficiency of an mRNA is influenced in dendritic cells by the type of the cap structure at its 5′ end. This is most likely due to differences in the efficiency by which the translational machinery is recruited to the different 5′ cap-structures. To corroborate this, we next analyzed (i) the effect of the RNA dose that is used for electroporation into immature dendritic cells, and (ii) the impact of a second RNA co-electroporated into immature dendritic cells on the protein expression. By increasing the amount of the electroporated mRNA, it is expected that at some point one or more translation factor(s) will become rate limiting in the cell, which will then restrict the amount of protein that can be synthesized from the exogenous RNA. Similarly, a second RNA will compete for the translation machinery, again influencing the translation efficiency.
Increasing amounts (20 pmol and 40 pmol) of luciferase-encoding RNAs co-transcriptionally capped with either ARCA or beta-S-ARCA(D1) were electroporated into immature dendritic cells, and the luciferase activity was measured after 2, 4, 8, 24, 48, and 72 hours. […] At this time-point, the level of luciferase protein was only about 1.6-fold as high as when half the amount of RNA was used. This ratio decreased even further 48 and 72 hours after electroporation (1.4- and 1.2-fold, respectively).

[5] = system: immature dendritic cells (iDCs); assay: RNA stability (half-life) by real time RT-PCR of d2eGFP RNA in immature dendritic cells; assay type: cell-based, human
[6] = system: inguinal lymph nodes of mice; assay: In vivo luciferase imaging after intranodal injection of luciferase RNA
Method: FIG. 5. Effect of the 5′-cap structure on protein expression in vivo. Mice (n=9) have been injected intranodally with the same amount of luciferase encoding RNA with ARCA or beta-S-ARCA(D1) at the 5′-end (as indicated). The luciferase activity (given in RLU) has been measured after 2, 4, 8, 24, 48, and 72 hours. (A) Images of whole animals at the indicated time points of a representative mouse, which has been injected with ARCA or beta-S-ARCA(D1) RNA are shown. (B) Mean±standard error of the mean as measured in the time course. The significance has been determined using statistical analyses (*: P<0.005 and **: P<0.02).
RNA which is administered in this way is primarily taken up by immature dendritic cells. Thus, we have investigated whether stronger protein expression is also observed in lymph nodes for beta-S-ARCA(D1) RNA compared to RNAs with other cap structures (analyzed exemplarily for ARCA which we have applied in the earlier studies). […] After uptake of the RNA by cells of the lymph nodes and translation of the encoded luciferase, protein expression was quantified by measuring luciferase activity using in vivo imaging. […] 25 min after luciferin injection, photons emitted were quantified for an integration time of 1 min. […] To quantify the bioluminescence, regions of interest (ROI) were drawn and total flux (photons/sec, p/s) in ROI was measured. […]

CD8^+-T-cells = assay: De novo T-cell priming after intranodal RNA immunization (tetramer staining); assay type: in vivo; conditions: mice; intranodal immunization day 0 and day 3; day 8
Method: FIG. 6. Effect of the 5′-cap structure on de novo priming of T-cells after intranodal immunization with RNA. Mice (n=5) have been immunized by intranodal injection twice […] (day 0 and day 3) with the same amount of RNA encoding a specific peptide antigen which either carries ARCA or beta-S-ARCA(D1) at the 5′-end. The frequency of tetramer positive CD8^+-cells was determined on day 8 using tetramer analysis. (A) Representative dot plots of cells from the peripheral blood and the spleen of mice which have been immunized with ARCA or beta-S-ARCA(D1) RNA (as indicated). (B) Average number of tetramer positive CD8^+-cells±standard error of the mean (in %) as measured on day 8. The significance was determined using statistical analyses (*: P<0.075).
Mice were immunized by intranodal injection of naked RNA twice […] (at day 0 and at day 3) which encodes a specific antigen with the above modifications. On day 8 the frequency of antigen-specific T-cells in peripheral blood and in the spleen was determined using tetramer staining. As shown in FIG. 6 about 5% of the CD8^+-T-cells in peripheral blood and about 6% of the CD8^+-T-cells in the spleen were tetramer positive after duplicate immunization with ARCA RNA. Using beta-S-ARCA(D1) RNA more than 12% and 13% tetramer positive CD8^+-T-cells in peripheral blood and in the spleen, respectively, were measured.

Dcp2 = Dcp2 (Homo sapiens, UniProt Q8IU60); conditions: background, earlier work; cited from earlier work
mature dendritic cells = assay: d2eGFP expression (flow cytometry) after introduction of capped RNA into mature dendritic cells; assay type: cell-based, human; conditions: mDCs
HC11 cells = conditions: background, earlier work; cited from earlier work
immature dendritic cells [7] = assay: Competition for translation: co-electroporation of d2eGFP RNA with luciferase RNA in immature dendritic cells; assay type: cell-based; conditions: iDCs; same amount of d2eGFP RNA; after 24, 48, and 72 hours vs luciferase RNA only
Method: as §1
The results described so far indicate that the translational efficiency of an mRNA is influenced in dendritic cells by the type of the cap structure at its 5′ end. This is most likely due to differences in the efficiency by which the translational machinery is recruited to the different 5′ cap-structures. To corroborate this, we next analyzed (i) the effect of the RNA dose that is used for electroporation into immature dendritic cells, and (ii) the impact of a second RNA co-electroporated into immature dendritic cells on the protein expression. […]

[8] = time point of maximal luciferase expression (functional RNA stability), mean ± SD

Substance	total protein expression (in words) ([1]; luciferase RNA)	transl. efficiency ([1]; luciferase RNA)	relative total protein expression [1]	protein expression (in words) [2]	transl. efficiency [2]	relative total protein expression [2]	time of max. [1, 8]	time of max. [2]	translation efficiency increase in comparison to RNA with m^7GpppG ([1]; luciferase RNA)	also measured
ApppG	do not result in any significant expression	0.01 ± 0.00	0.022 ± 0.001	do not result in protein expression	0.01 ± 0.00	0.008 ± 0.000				
GpppG	do not result in any significant expression	0.18 ± 0.01	0.221 ± 0.001	do not result in protein expression	0.31 ± 0.02	0.593 ± 0.005	11.5 ± 0.0 h	27.5 ± 0.5 h		
m2^(7,2′-O)GppspG(D1) [beta-S-ARCA(D1)]	highest total protein expression	3.36 ± 0.09	13.094 ± 0.307		3.05 ± 0.14	3.884 ± 0.032		20.1 ± 0.1 h	about 3.4 fold	expression increase (factor) compared to RNA with ARCA or post-transcriptionally modified RNA ([1]; luciferase RNA): around 3; total protein expression increase compared to RNA synthesized in presence of m^7GpppG ([1]; luciferase RNA): more than 13 fold; total protein expression increase compared to beta-S-ARCA(D2) RNA ([1]; luciferase RNA): about 2 fold; total protein expression (in words) (immature dendritic cells [3]): highest total protein expression; signal with 40 pmol relative to 20 pmol RNA (immature dendritic cells [4]; each time-point (2-72 hours)): about twice as high; RNA stability / degradation (in words) [5]: most stable RNA; protein expression compared to RNA with ARCA (in words) ([6]; 2, 4, 8, 24, 48, and 72 hours after intranodal application): higher at each time point; expression throughout the entire time course (integral of the curve), increase vs ARCA RNA ([6]; intranodal injection, luciferase, 2-72 hours): about 8 fold; tetramer positive CD8^+-T-cells in peripheral blood (CD8^+-T-cells): more than 12%; tetramer positive CD8^+-T-cells in the spleen (CD8^+-T-cells): > 13%; Dcp2 cleavage compared to RNA with unmodified ARCA 5′-cap (Dcp2): 71%
m2^(7,2′-O)GppspG(D2) [beta-S-ARCA(D2)]	second best total expression	3.53 ± 0.17	6.570 ± 0.075	highest protein expression	3.30 ± 0.03	4.042 ± 0.053	12.8 ± 0.0 h	19.4 ± 0.1 h	about 3.5 fold	total protein expression (in words) (mature dendritic cells): highest total protein expression; Dcp2 cleavage compared to RNA with unmodified ARCA 5′-cap (Dcp2): 6%; translation / total expression in HC11 cells (in words) (HC11 cells): more efficiently translated in HC11 cells; also recorded: strongest total expression
m2^(7,3′-O)GpppG [ARCA]		2.52 ± 0.19	4.777 ± 0.042		2.16 ± 0.00	2.526 ± 0.015	12 h and 12.6 ± 0.1 h	17.5 ± 0.3 h	about 2.5 fold	level of luciferase protein with 40 pmol relative to 20 pmol RNA (immature dendritic cells [4]; 24 hours after electroporation): about 1.6 fold; level of luciferase protein with 40 pmol relative to 20 pmol RNA (immature dendritic cells [4]; 48 hours after electroporation): 1.4 fold; level of luciferase protein with 40 pmol relative to 20 pmol RNA (immature dendritic cells [4]; 72 hours after electroporation): 1.2 fold; effect of co-electroporated d2eGFP RNA on expression of luciferase RNA (immature dendritic cells [7]): decreased the expression; tetramer positive CD8^+-T-cells in peripheral blood (CD8^+-T-cells): about 5%; tetramer positive CD8^+-T-cells in the spleen (CD8^+-T-cells): about 6%
m^7GpppG [m7GpppG]		1.00 ± 0.04	1.000 ± 0.007		1.00 ± 0.05	1.000 ± 0.003	8.1 ± 1.1 h	16.0 ± 0.3 h		time of max. (hours) ([1]; time point of maximal luciferase expression (functional RNA stability), mean ± SD, listed as m^7GpppG): around 8 hours
m^7Gppppm^7G [m7Gppppm7G]	even lower than that of RNA which has been transcribed in presence of m^7GpppG	0.20 ± 0.10	0.404 ± 0.004	poorly translated	0.56 ± 0.04	0.176 ± 0.001	4.9 ± 0.1 h	6.0 ± 0.3 h		RNA stability / degradation (in words) [5]: most unstable RNA
